Measured values: patent US20080214555A1 (priority 2007, published 2008)
Where two headings read alike, the source gives them in different places.

Tests used:
[1] = test system: patients with non-ST elevation acute coronary syndrome
[2] = test system: patients with non-ST elevation acute coronary syndrome; test: MERLIN-TIMI 36: ischemia on Holter / continuous ECG (CECG); assay type: in vivo, human
Description: Median clinical follow-up was 12 months. At randomization, 3-lead CECG monitoring was initiated for median duration of 6.9 days. Recurrent ischemia on CECG was defined as ST dep >1 mm from baseline lasting >1 min. The TRS is calculated as the sum of seven presenting characteristics: 1) age >65 yrs, 2) >3 cardiac risk factors, 3) documented coronary artery disease, 4) recent severe angina, 5) ST deviation >0.5 mm, 6) elevated cardiac markers, and 7) prior aspirin use and is categorized as low (0-2), moderate (3-4), or high (>4) risk.
The data for total duration (minutes) of ischemia on Holter between randomization and 72 hours from MERLIN-TIMI 36 is shown in Table 19 below.
At randomization, 6355 patients (99%) had 3-lead CECG monitoring initiated (median duration 6.9 days). The primary CECG endpoint was the rate of ST dep ≧1 mm from baseline lasting ≧1 minute with heart rate at onset <100 bpm. Exploratory analyses using ST dep ≧0.5 mm were also performed.

[3] = 30 days, all patients dosed, n = 3268
[4] = 60 days, all patients dosed, n = 3268
[5] = 360 days, all patients dosed, n = 3268
[6] = 540 days, all patients dosed, n = 3268
[7] = endpoint death or CV hospitalization, all patients dosed, n = 3268
[8] = ranolazine vs placebo, all patients dosed

COc1ccccc1OCC(O)CN1CCN(CC(=O)Nc2c(C)cccc2C)CC1 (racemic) [Ranolazine, (±)-N-(2,6-dimethylphenyl)-4-[2-hydroxy-3-(2-methoxyphenoxy)-propyl]-1-piperazineacetamide]
Incidence (Kaplan-Meier estimate) of death from any cause [1, 3]: 1.8%
Incidence (Kaplan-Meier estimate) of death or CV hospitalization [1, 3]: 9.2%
Incidence (Kaplan-Meier estimate) of death from any cause [1, 4]: 2.2%
Incidence (Kaplan-Meier estimate) of death or CV hospitalization [1, 4]: 15.0%
Incidence (Kaplan-Meier estimate) of death from any cause ([1]; 180 days, all patients dosed, n = 3268): 3.4%
Incidence (Kaplan-Meier estimate) of death from any cause [1, 5]: 5.3%
Incidence (Kaplan-Meier estimate) of death or CV hospitalization [1, 5]: 32.8%
Incidence (Kaplan-Meier estimate) of death from any cause [1, 6]: 7.0%
Incidence (Kaplan-Meier estimate) of death or CV hospitalization [1, 6]: 37.6%
Symptomatic documented arrhythmias ([1]; Example 7): 3.0%
Clinically reported sudden cardiac death, number ([1]; Example 8): 56
Pts with events: death from any cause (safety endpoint) ([1]; all patients dosed, n = 3268): 172
Pts with events: first occurrence of death or CV hospitalization (safety endpoint) ([1]; all patients dosed, n = 3268): 1037
Symptomatic documented arrhythmias: Bradyarrhythmias, % ([1]; all patients dosed, n = 3268): 1.0%
Symptomatic documented arrhythmias: Bradyarrhythmias, number ([1]; all patients dosed, n = 3268): 34
Symptomatic documented arrhythmias: Cardiac arrest NOS, % ([1]; all patients dosed, n = 3268): 0.3%
Symptomatic documented arrhythmias: Cardiac arrest NOS, number ([1]; all patients dosed, n = 3268): 10
Symptomatic documented arrhythmias: Pts. with Arrhythmias - Overall, % ([1]; all patients dosed, n = 3268): 3.0%
Symptomatic documented arrhythmias: Pts. with Arrhythmias - Overall, number ([1]; all patients dosed, n = 3268): 99
Symptomatic documented arrhythmias: Supraventricular arrhythmias, % ([1]; all patients dosed, n = 3268): 1.2%
Symptomatic documented arrhythmias: Supraventricular arrhythmias, number ([1]; all patients dosed, n = 3268): 38
Symptomatic documented arrhythmias: Ventricular arrhythmias, % ([1]; all patients dosed, n = 3268): 0.7%
Symptomatic documented arrhythmias: Ventricular arrhythmias, number ([1]; all patients dosed, n = 3268): 22
Endpoint-defining events: CV hospitalization, % of pts with events [1, 7]: 89.3%
Endpoint-defining events: CV hospitalization, number [1, 7]: 926
Endpoint-defining events: Death, % of pts with events [1, 7]: 10.7%
Endpoint-defining events: Death, number [1, 7]: 111
HR, total mortality ([1]; ranolazine vs placebo, 95% CI 0.80-1.22): 0.99
Relative risk (SE), death from any cause [1, 8]: 0.988 (0.11)
Relative risk (SE), death or CV hospitalization [1, 8]: 0.981 (0.04)
Symptomatic documented arrhythmias ([1]; women): 2.6%
Rate of primary CECG endpoint events ([2]; >72 hours after randomization): 11.6%
RR, primary CECG endpoint events ([2]; >72 hours after randomization, ranolazine vs placebo): 0.86
Rate of primary CECG endpoint (ST dep ≧1 mm lasting ≧1 minute, heart rate at onset <100 bpm) ([2]; entire 7 day recording): 19.2%
Rate of CECG ischemic events ([2]; lower ischemic threshold of 0.5 mm): 22.9
RR, CECG ischemic events ([2]; lower ischemic threshold of 0.5 mm, ranolazine vs placebo): 0.91
